From ChEMBL document CHEMBL5303711, “ECBD screening data for assay EOS300108” (2023) come the findings set out here.

This series can be described thus: Cytotoxicity activity against human HepG2 cells assessed by CellTiter-Glo luminescent cell viability assay. The settings on record: HepG2 cells, read-out: IC50 relative. In kind it is toxicity, cell-based. On the set-up: assay stage confirmatory assay, source tissue liver.

Activity calls are given as the source filed them. How the calls were made is not given here.

`Nc1nc(S)c2ncn(C3OC(CO)C(O)C3O)c2n1` (stereo not given): the CC50 was 2.5 µM (active).
The value for `Cc1[nH]c2ccccc2c1CN1CCN(c2ccccn2)CC1` was 12.9 µM (inactive); that for `NCCCCNS(=O)(=O)c1ccc2c(Cl)cccc2c1` was 13 µM (active); that for `CSc1cccc(NS(=O)(=O)c2ccc3c(c2)CCN3C(C)=O)c1` was 6.6 µM (active).
The value for `CC1CCC(C(C)C)C(OC(=O)Cn2c(-c3ccc(Br)cc3)[n+](C)c3ccccc32)C1` (stereo not given) was 4.7 µM (active).
On to `CC1(C)CC(Nc2ccc(Nc3ccccc3)cc2)CC(C)(C)N1`, for which the CC50 is 10.9 µM (active).
Consider `O=[N+]([O-])c1ccc(CN2CCOCCOCCN(Cc3ccc([N+](=O)[O-])cc3)CCOCC2)cc1`, for which the CC50 was 10.4 µM (active).
The same measure for `Cc1ccc(C)c(C(=O)CN2C3=NCCCN3c3ccccc32)c1`: 9.6 µM (active).
Regarding `O=c1oc(-c2ccccc2)cc(Cl)c1Cl`, the CC50 was 5.5 µM (active).
The value for `Oc1cc(O)c2sc(Nc3ccc(F)cc3)nc2n1` was 5.1 µM (active).
The value for `CCOCc1ccc(O)c2ncccc12` was 5.6 µM (active); that for `CC1OC(OC2CC(O)C3(CO)C4C(O)CC5(C)C(C6=CC(=O)OC6)CCC5(O)C4CCC3(O)C2)C(O)C(O)C1O` (stereo not given) was 0.1 µM (active); that for `O=S(=O)(c1ccccc1)N1CCN(c2ccc(Nc3ccncc3)nn2)CC1` was 16.9 µM (inactive).
With `CCOC(=O)C(C)Oc1cccc2c(=O)n(CC(=O)Nc3ccc4c(c3)OCCO4)ccc12` (stereo not given), the CC50 was 50 µM (inactive).
For `CCOC(=O)C(C)Oc1cccc2c(=O)n(CC(=O)Nc3ccc(OC)cc3)ccc12` (stereo not given), the CC50 was 15.4 µM (inactive).
The value for `CCOC(=O)C1CCCN(C(=O)C(=O)c2c[nH]c3ccccc23)C1` (stereo not given) was 9.8 µM (active); that for `CNc1nc2c(=O)[nH]c(N)nc2n1[C@@H]1O[C@H](CO)[C@@H](O)[C@H]1O` was 11.4 µM (active).
As to `COc1ccc(Nc2nccc(-c3ccncc3)n2)cc1`, the CC50 was 4.7 µM (active).
The same measure for `COc1cc(-c2nnc(SC3=CS(=O)(=O)c4ccccc43)o2)cc(OC)c1OC`: 2.5 µM (active); for `Brc1c(Br)c(Br)c2[nH]cnc2c1Br`: 7.4 µM (active); for `O=C1CCCN1c1ccc(S(=O)(=O)Nc2cccc3cccnc23)cc1`: 9.7 µM (active).
As for `COc1cc2c(N3CCN(C(=O)Nc4ccc(OC(C)C)cc4)CC3)ccnc2cc1OCCCN1CCCCC1`, the CC50 was 7.4 µM (active).
The value for `COc1cc(OC)cc(-c2nnc(Nc3nc4c(F)cccc4s3)o2)c1` was 27.8 µM (inactive); that for `CN(C)c1nc(Nc2ccc(O)cc2)nc2ccccc12` was 9.7 µM (active); that for `CN(C)c1nc(Nc2cccc(O)c2)nc2ccccc12` was 12.7 µM (active).
`CC1CCN(CCNC(=O)c2c(O)c3sccc3n(Cc3ccccc3)c2=O)CC1`: the CC50 is 22.3 µM (inactive).
The value for `Oc1cccc2ccc(Nc3ccccn3)nc12` was 0.7 µM (active).
Consider `Cc1ccc(Cl)cc1N1CCN(c2cc([C@H]3C[C@@H](O)C3)ncn2)CC1`, for which the CC50 was 9.5 µM (active).
In the case of `CN(C)CCCN(CCCN(C)C)CC(c1ccccc1)c1ccccc1`, the CC50 was 7.2 µM (active).
The same measure for `COc1ccc(-c2ccc(CNCCNCCO)o2)cc1Cl`: 11.4 µM (active); for `Cc1ccn(-c2cc(N3CCN(C(=O)Nc4ccc5c(c4)OCCO5)CC3)ncn2)n1`: 10.7 µM (active); for `CC1CCN(CC(O)COc2ccccc2C(C)(C)C)CC1` (stereo not given): 9.6 µM (active).
The value for `CCc1ccc(S(=O)(=O)N2CCN(c3cc(-n4ccc(C)n4)ncn3)CC2)cc1` was 6.7 µM (active).
The value for `O=S(=O)(Nc1cccc2cccnc12)c1ccc2c(c1)OCCO2` was 10.4 µM (active); that for `CCOc1ccccc1CN1CCN(Cc2ccc(C)cc2)CC1CCO` (stereo not given) was 12.9 µM (inactive); that for `Cc1[nH]c2c(C)ccc(F)c2c1CCN` was 11.7 µM (active).
On to `CCN1CCN(CCOc2ccc3ccccc3c2Cl)CC1`, for which the CC50 was 8 µM (active).
The same measure for `COc1cccc(-c2ccc(=O)n(CC(=O)Nc3ccccn3)n2)c1`: 6.8 µM (active); for `Cc1cc(OCC(O)CN2CCN(C)CC2)cc(C)c1Cl` (stereo not given): 13.9 µM (inactive).
With `Cc1ccc(S(=O)(=O)N2CCN(c3cc(-n4ccnc4C)ncn3)CC2)cc1C`, the CC50 is 5.1 µM (active).
For the molecule `O=S(=O)(c1ccc(F)cc1)N1CCN(c2ccc(Nc3ccncc3)nn2)CC1`, the CC50 was 13.6 µM (inactive).
The value for `O=C(Nc1n[nH]c(C2CC2)n1)C1CC(=O)N(c2ccc(Br)cc2)C1` (stereo not given) was 1.8 µM (active); that for `CC1CC(C)CN(CCCNC(=O)Cn2nc(-c3ccc(Cl)cc3)ccc2=O)C1` (stereo not given) was 14.5 µM (inactive).
Turning to `CC(CNC(=O)C1CCN(C)CC1)Cc1cccc2ccccc12` (stereo not given), the CC50 is 11.2 µM (active).
The value for `Cc1csc(NC(=O)CC[C@@H]2NC(=O)N(CCc3cccc(F)c3)C2=O)n1` was 8.9 µM (active); that for `O=c1[nH]c2ccccc2n1C1CCN(c2nccc(-c3cccnc3)n2)CC1` was 11.2 µM (active); that for `c1ccc(-c2ccc(CNC3CN4CCC3CC4)cc2)cc1` (stereo not given) was 5.6 µM (active).
`CN(C)CCCN(CCCN(C)C)CC1=CCC2CC1C2(C)C` (stereo not given): the CC50 was 9.6 µM (active).
The value for `CC(C)c1cc(Br)ccc1OCCCN1CCN(C)CC1` was 4.1 µM (active); that for `CCn1c(Oc2cccc3cccnc23)nc2c1c(=O)n(C)c(=O)n2C` was 2.9 µM (active); that for `CNc1nc(Nc2cccc(NC(C)=O)c2)nc2ccccc12` was 5.2 µM (active).
As for `COc1ccc(CCN2C(=O)N(C)C(=O)C23CCN(Cc2cccc(OC)c2)CC3)cc1`, the CC50 was 6.6 µM (active).
On to `CC(=O)CCS(=O)(=O)c1ccc(Cc2ccc(S(=O)(=O)CCC(C)=O)cc2)cc1`, for which the CC50 was 9.2 µM (active).
For `COc1cc(CN2CCN(c3ccccc3C)CC2)ccc1O`, the CC50 was 8 µM (active).
The same measure for `CCCc1cc(N2CCN(CCO)CC2)n2ncc(-c3ccccc3)c2n1`: 11.5 µM (active).
`Cc1ccn(-c2cc(N3CCN(C(=O)Nc4ccc5c(c4)OCO5)CC3)ncn2)n1`: the CC50 was 15.7 µM (inactive).
The same measure for `CCCc1cc(NCCCN2CCOCC2)n2ncc(-c3ccccc3)c2n1`: 10.8 µM (active); for `CC1CN(CCS(=O)(=O)c2ccc(Oc3ccc(S(=O)(=O)CCN4CC(C)OC(C)C4)cc3)cc2)CC(C)O1` (stereo not given): 6.1 µM (active); for `CN(C)CCNCc1cccc(OCc2ccc(F)cc2)c1`: 15 µM (inactive).
The value for `CN1CCN(CCCCOc2ccc(-c3ccccc3)cc2)CC1` was 4 µM (active); that for `Cc1ccccc1OCC(=O)Nc1ccc(OC2CCN(C)CC2)cc1` was 13.6 µM (inactive).
The same measure for `COc1ccc(OC)c(S(=O)(=O)Nc2ccc3nc(S(C)(=O)=O)sc3c2)c1`: 6.9 µM (active); for `Cc1ccc(S(=O)(=O)N2CCN(c3ccc(Nc4ccncc4)nn3)CC2)cc1`: 10.4 µM (active).
For the molecule `CCOc1cccc(OCC)c2c(C)nc(C)c1-2`, the CC50 was 26.6 µM (inactive).
The same measure for `COc1cccc(-c2noc(-c3ccc(N4CCN(C(C)C)CC4)nc3)n2)c1OC`: 13.1 µM (active); for `CC(C)c1ccc(CN(CCCN(C)C)CCCN(C)C)cc1`: 8.8 µM (active); for `Cc1cc(F)ccc1N1CCC(N[C@@H]2CCOC[C@H]2OCC2CC2)CC1`: 15.6 µM (inactive).
Take `COc1ccc(C(O)CN2CCN(c3cc(C)ccc3C)CC2)cc1OC` (stereo not given): the CC50 was 10.2 µM (active).
With `CCN1CCN(CC(O)COc2cc(C)c(Cl)c(C)c2)CC1` (stereo not given), the CC50 is 12.8 µM (inactive).
The same measure for `Cc1cc(OCC(O)CN2CCCCC2)cc(C)c1Cl` (stereo not given): 10.5 µM (active); for `CCc1ccc(NC(=O)N2CCN(c3cc(-n4ccc(C)n4)ncn3)CC2)cc1`: 46.2 µM (inactive); for `CCCCn1c(=O)c(C(=O)Nc2ccc(O)cc2)c(O)c2ccccc21`: 23 µM (inactive).
As for `C[C@@H](C(=O)Nc1c2c(nn1C)CSC2)N1Cc2ccccc2C1=O`, the CC50 is 15.8 µM (inactive).
The same measure for `CCc1cccc(NC(=O)N2CCN(c3ccnc(N4CCCC4)n3)CC2)c1`: 13.5 µM (inactive).
Take `CS(=O)(=O)N1CCc2ccc(NC(=O)Nc3ccc(F)cc3F)cc21`: the CC50 is 24.5 µM (inactive).
For `Cc1cc(NC(=O)CSC(C)C)cc2sc(N)nc12`, the CC50 is 13.7 µM (active).
The same measure for `COc1cc(CNCCN(C)C)ccc1OCc1ccc(F)cc1`: 13.1 µM (active); for `CN(c1ccc(C(=O)Nc2ccc(S(=O)(=O)N3CCOCC3)cc2)cc1)S(=O)(=O)c1ccccc1`: 2.9 µM (active).
With `COc1ccccc1-c1nnc(-c2ccccc2O)o1`, the CC50 was 5.3 µM (active).
On to `COc1cccc(NC(=O)N2CCN(c3ccnc(N4CCCCC4)n3)CC2)c1`, for which the CC50 was 11.5 µM (active).
In the case of `O=C(Nc1ccc2c(c1)OCCO2)N1CCN(c2ccnc(N3CCCCC3)n2)CC1`, the CC50 is 12.1 µM (active).
The same measure for `CN1CCN(C)C(CNc2ncc(F)c(N(C)C)n2)C1` (stereo not given): 50 µM (inactive); for `Nc1nc(Nc2ccc3c(c2)OCCO3)nc2ccccc12`: 8.7 µM (active).
Turning to `CCOc1cc(CNCC(C)O)ccc1OCc1ccc(C)cc1` (stereo not given), the CC50 was 9.4 µM (active).
Regarding `CC1(C)CC(=O)c2cn(-c3ccccc3)c(=O)c(C(=O)Nc3cccnc3)c2C1`, the CC50 was 9.2 µM (inactive).
The value for `O=C(Nc1nc(-c2ccc(S(=O)(=O)N3CCOCC3)cc2)cs1)c1cccs1` was 5.3 µM (active).
As for `Cc1cc(OCCOCCN2CCN(C)CC2)c(Cl)c(C)c1Cl`, the CC50 was 5.3 µM (active).
For `FC(F)(F)c1cccc(Nc2nc(-c3ccccc3)nc3ncccc23)c1`, the CC50 is 41.6 µM (inactive).
The same measure for `Cc1ccc(Sc2cccc3nc(N)nc(N)c23)cc1`: 8.3 µM (active).
The value for `COc1ccc(Nc2nccc(-c3cccnc3)n2)cc1` was 9.9 µM (active).
